Test results: US9549554B2, “Insecticidal synergistic combinations of phthaldiamide derivatives and abamectin, emamectin, lepimectin or milbemectin” (BAYER CROPSCIENCE AKTIENGESELLSCHAFT, priority 2013, dated 2017)

Assays:
Spodoptera frugiperda = assay: whole plant or invertebrate
Procedure: Solvent: 78.0 parts by weight acetone
• 1.5 parts by weight dimethylformamide Emulsifier: 0.5 parts by weight alkylarylpolyglycolether
To produce a suitable preparation of a spore suspension the spores are diluted with emulsifier-containing water to the desired concentration.
Maize (Zea mais) leaf sections are sprayed with a preparation of the active ingredient of the desired concentration. Once dry, the leaf sections are infested with fall armyworm larvae (Spodoptera frugiperda).
After the specified period of time, mortality in % is determined. 100% means all caterpillars have been killed and 0% means none of the caterpillars have been killed. The mortality values determined thus are recalculated using the Colby-formula (see sheet 1).

Myzus persicae = Myzus persicae spray test (infested cabbage leaves); type: in vivo; details: green peach aphid
Procedure: Solvent: 7 parts by weight of dimethylformamide
Emulsifier: alkylaryl polyglycolether
Further test concentrations are prepared by dilution with emulsifier containing water Ammonium salt and/or penetration enhancer in a dosage of 1000 ppm are added to the desired concentration if necessary.
Cabbage leaves (Brassica oleracea) which are heavily infested by the green peach aphid (Myzus persicae) are treated by being sprayed with the preparation of the active compound of the desired concentration.

Phaedon cochleariae = Phaedon cochleariae spray test (Chinese cabbage leaf disks); type: in vivo; details: mustard beetle larvae
From the text: Solvent: 78.0 parts by weight of acetone
• 1.5 parts by weight of dimethylformamide Emulsifier: 0.5 parts by weight of alkylaryl polyglycolether
Once dry, the leaf disks are infested with mustard beetle larvae (Phaedon cochleariae).
100% means all beetle larvae have been killed and 0% means none of the beetle larvae have been killed.

[1] = Spodoptera frugiperda, in Zea mays, 144 h, read-out: Efficacy in % after 6d (mortality)

`Cc1cc(C(F)(C(F)(F)F)C(F)(F)F)ccc1NC(=O)c1cccc(Cl)c1C(=O)NC(C)(C)C#N` [(I-5)] was tested, and the mortality at 0.25 g/ha (Spodoptera frugiperda; [1]) was 0%, the mortality at 3 g/ha (Spodoptera frugiperda; [1]) was 33% and the mortality at 3 ppm (Myzus persicae; Myzus persicae, 144 h, 3 ppm, after 6 d, read-out: Efficacy in % after 6d (mortality)) was 0%. For the same compound, the mortality at 75 ppm (Myzus persicae; Myzus persicae, 144 h, 75 ppm, after 6 d, read-out: Efficacy in % after 6d (mortality)) was 0% and the mortality at 4 g/ha (Phaedon cochleariae; Phaedon cochleariae, foliar, 144 h, 4 g ai/ha, after 6 d, read-out: Efficacy in % after 6d (mortality)) was 0%.
For “Abamectin [Abamectin (II-1), reference compound]”, the “Efficacy in % after 6d (mortality)” value (Spodoptera frugiperda; 15 g ai/ha, fall armyworm larvae, after 6 d) was 0% and the “Efficacy in % after 6d (mortality)” value (Phaedon cochleariae; 0.032 g ai/ha) was 0%.
In the case of “Emamectin benzoate [Emamectin-Benzoate, reference compound]”, the “Efficacy in % after 6d (mortality)” value (Myzus persicae; 15 ppm) is reported as 15%.
